This passage reports Kd, koff and kon results from PMC2978705, “Thermodynamic Additivity of Sequence Variations: An Algorithm for Creating High Affinity Peptides Without Large Libraries or Structural Information” (PLoS ONE, 2010).

Where no end group is shown, it is not given here.

Holding throughout (assay type): binding
One assay has as its target transferrin (Homo sapiens, UniProt P02787). The assay can be described thus: Equilibrium SPR affinity of TRF26 peptides for immobilized transferrin. As to conditions: peptide concentration series.
Assay [1] deals with T1, TNF-α (Homo sapiens, UniProt P01375). The assay can be described thus: Equilibrium SPR affinity of peptides for captured TNF-α. Here is the method:
Point-variant libraries were prepared in 96-well stock plates as described in the supporting information. From the stock plate, peptides were diluted to 50 µM or 10 µM in Biacore HBS-EP buffer (GE Healthcare, Piscataway, NJ) containing 1 mg/ml carboxymethyl-dextran (Sigma-Aldrich, St. Louis, MO) to reduce non-specific binding to the CM-5 SPR chip surface. Biotinylated TNF-α was captured on a neutravidin coated Biacore CM-5 chip (GE Healthcare, Piscataway, NJ) at different levels on spots 1, 2, 4, and 5 across all four flow cells corresponding to a low to moderate Rmax range of 40-200 RU. Spot 3 on all flow cells contained only immobilized neutravidin and served as a reference spot.
Responses were normalized to the predicted Rmax so that results from different TNF-α capture levels could be directly compared.
Sequences containing multiple enhancing point variations were synthesized using standard solid-phase synthesis and purified. Multiple variant affinities were determined with the same protocol used for point-variant affinities.
Peptide binding energies and dissociation constants (Kd) were calculated separately as a mean and standard error of all replicate measurements.
Text S1: Experimental Details […]
Point-Variant Libraries. Point-variant libraries were ordered in PEPScreen® 96 -vial format from Sigma-Genosys (St. Louis, MO). The purity of each peptide in the library was […]
was dissolved in HBS-N buffer to an approximate 2 mg/ml concentration, each vial was centrifuged to spin insoluble peptide to the bottom of the vial. Supernatant was collected from each vial and transferred to a 96-well plate, peptide supernatant concentrations in each well was measured using A280 absorbance and a predicted molar extinction coefficient (ε280) based on the specific peptide sequence. Based on the supernatant concentrations, all the […]
plate(s). All SPR screens of the point-variants were done using dilutions from this stock […]
SPR Assays. SPR Chip Preparation. Unless otherwise noted, SPR immobilization was done on a Biacore A100 SPR system (GE Healthcare, Piscataway, NJ). A standard coupling protocol was employed to immobilize a neutravidin capture surface via exposed primary amines. The immobilization was performed at 25 °C using Sodium Acetate (10 mM in 150 mM Sodium Chloride, pH 4.5) as the running buffer. Addressable spots 1, 2, 3 on each of the four flow cells of the CM-5 dextran SPR chip (GE Healthcare, Piscataway, NJ) were activated by a 10 minute injection of a freshly prepared 1:1 solution of 400 mM 1-ethyl-3-(3-dimethylaminopropyl)-carbodimide (EDC): 100 mM N-hydroxysuccimide (NHS) in […]

For assay [2], the target named is T1, TNF-α. The assay can be described thus: Kinetic fits of SPR sensorgrams. Conditions: for koff / kon: kinetic fits of SPR sensorgrams across a concentration series; for Kd: from koff and kon of SPR kinetic fits. Here is the method:
Kinetic fits of the TNF1 and TNF1-opt SPR sensorgrams (Figure S7 in File S1) indicate that TNF1-opt has approximately an order of magnitude or more improvement in both on-rate (kon), and off-rate (koff), when compared to TNF1 (TNF1: koff = 1.6±0.5 s^−1, kon = 5.0±1.7×10^3 M^−1s^−1, TNF1-opt: koff = 0.2±0.02 s^−1 kon = 2.6±0.2×10^5 M^−1s^−1).
Figure S7. SPR sensorgram kinetic fits for TNF1 and TNF1-opt. On-rates (kon), off-rates (koff) and dissociation constants (Kd) shown were determined from kinetic fits of several sensorgrams across the same concentration series used in equilibrium binding response analysis.
(1 picture or pasted object on this page, not shown here)

Assay [3] addresses T1, TNF-α. The assay is described as follows: Solution-phase fluorescence anisotropy of labeled TNF1-opt with TNF-α. As to conditions: peptide labeled at C-terminal cysteine fixed at 100 nM, TNF-α varied 80 nM to 10 µM, triplicate. Here is the method:
Figure 4 Equilibrium binding isotherms for TNF1-opt. Outer plot: SPR normalized replicate responses performed with TNF-α captured on the SPR chip surface and variable TNF-opt concentrations flowed over the surface. Inset plot: Solution-phase fluorescence anisotropy measurements performed in triplicate with TNF1-opt labeled at the C-terminal cysteine, TNF-opt concentration was fixed at 100 nM while TNF-α concentration was varied. TNF1-opt sensorgrams are available in Figure S5 in File S1, SPR binding isotherms for all enhanced variants tested are available in Figure S6 in File S1.
TNF1 and TNF4 Lead Generation from a […] Random Peptide Screen. Peptide Library and SPR Chip Preparation. Random 20-mer peptides were prepared in 384-well plates and diluted with Biacore HBS-EP buffer (GE Healthcare, Piscataway, NJ) containing 1 mg/ml carboxymethyl-dextran (Sigma-Aldrich, St. Louis, MO) to reduce non-specific binding to the CM-5 SPR chip surface. […]
TNF1-opt Fluorescence Polarization Affinity Characterization. Fluorescence anisotropy measurements were performed on a custom fluorimeter with an orthogonal optical configuration. […]
200 nM TNF-α and 200 nM E.coli lysate (calculated as a total protein concentration in the lysate) labeled with Alexa-555 and Alexa-647 (Invitrogen, Carlsbad, CA) respectively in PBST buffer containing 1% BSA was incubated with the microarray for 1 hour in a humidity chamber. […]

Where [4] appears, read: equilibrium SPR, TNF-α captured on chip, peptide concentration series, mean ± standard error of several replicates, SEM.
Where [5] appears, read: equilibrium SPR binding responses, TNF-α.

Chain of transferrin (P02787 20-698, species assumed): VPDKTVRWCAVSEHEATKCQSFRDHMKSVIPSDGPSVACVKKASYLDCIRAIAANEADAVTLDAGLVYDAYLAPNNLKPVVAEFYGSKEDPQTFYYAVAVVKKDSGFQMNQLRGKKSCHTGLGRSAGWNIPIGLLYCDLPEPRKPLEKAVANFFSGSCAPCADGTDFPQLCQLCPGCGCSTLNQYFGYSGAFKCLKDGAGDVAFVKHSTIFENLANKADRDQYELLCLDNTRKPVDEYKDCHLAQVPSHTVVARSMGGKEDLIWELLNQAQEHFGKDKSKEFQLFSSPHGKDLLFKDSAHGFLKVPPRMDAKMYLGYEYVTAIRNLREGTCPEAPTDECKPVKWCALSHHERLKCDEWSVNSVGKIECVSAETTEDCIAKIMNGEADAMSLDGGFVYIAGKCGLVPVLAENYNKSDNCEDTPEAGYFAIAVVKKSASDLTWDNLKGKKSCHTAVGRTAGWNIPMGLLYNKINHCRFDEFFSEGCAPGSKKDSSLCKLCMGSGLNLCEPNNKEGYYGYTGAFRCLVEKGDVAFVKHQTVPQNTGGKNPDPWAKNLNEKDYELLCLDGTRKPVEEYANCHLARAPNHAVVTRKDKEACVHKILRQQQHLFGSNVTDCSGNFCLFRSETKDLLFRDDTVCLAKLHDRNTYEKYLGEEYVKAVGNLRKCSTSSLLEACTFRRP
T1 sequence (P01375 77-233 limits assumed): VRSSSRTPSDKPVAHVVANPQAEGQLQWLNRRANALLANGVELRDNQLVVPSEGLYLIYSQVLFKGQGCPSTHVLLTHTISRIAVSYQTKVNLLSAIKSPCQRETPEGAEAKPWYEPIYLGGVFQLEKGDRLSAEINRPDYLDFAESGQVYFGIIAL

AHKVVPQRQIRFAYNRYGSC [Peptide H12F] displayed a Kd at transferrin of 9.7 ± 1.6 µM.
On transferrin, AHKVVPQRQIRHAYNRYGSC [TRF26] registered a Kd of 85 ± 14 µM.
Same read-out and setting: the same measure for AHKVVYQRQIRFAYNRYGSC [P6Y+H12F]: 0.5 ± 0.1 µM.
The same measure, in the same setting: to AHKVVYQRQIRHAYNRYGSC [Peptide P6Y] belongs 8.6 ± 1.6 µM.
Consider FERDPLKMPWSFLQSRQGSC [Peptide M7K], for which the affinity at TNF-α [1] (setting [4]), expressed as Kd, was 57 ± 20 µM.
For the sequence FERDPLMMPWKFLQSRQGSC [Peptide S11K], binding at TNF-α [1] (setting [4]) was put at a Kd of 40 ± 7.2 µM.
FERDPLMMPWSFLQSRQGSC [TNF1] showed a Kd at TNF-α [1] (setting [4]) of 160 ± 19 µM. On TNF-α [2], this sequence came in with a koff of 1.6 ± 0.5 s⁻¹ and a kon of 5000 ± 1.7e+06 M⁻¹ s⁻¹.
In turn, FERDYLKMPWSFLQSRQGSC [P5Y+M7K] displayed a Kd at TNF-α [1] (setting [4]) of 27 ± 1.8 µM.
For FERDYLMMPWKFLQSRQGSC [P5Y+S11K], the Kd on TNF-α [1] (setting [4]) was 24 ± 1.4 µM.
Take FERDYLMMPWSFLQSRQGSC [Peptide P5Y]: on TNF-α [1] (setting [4]), the Kd was determined as 58 ± 3.4 µM.
For FERSYLKMPWKFLQSRQGSC [TNF1-opt], the Kd at TNF-α [1] (setting [4]) is 1.6 ± 0.3 µM; at TNF-α [3] it was 1.1 ± 0.2 µM; on TNF-α [2] (read-out: Kd calculated from rate constants), 0.7 ± 0.02 µM. This sequence also showed a koff at TNF-α [2] of 0.2 ± 0.02 s⁻¹. At TNF-α [2], the kon was 260000 ± 2e+09 M⁻¹ s⁻¹.
As for FERSYLKMPWSFLQSRQGSC [D4S+P5Y+M7K], at TNF-α [1] (setting [4]), binding was characterised by a dissociation constant (Kd) of 14 ± 1 µM.
Regarding FERSYLMMPWKFLQSRQGSC [D4S+P5Y+S11K], the Kd at TNF-α [1] (setting [4]) stood at 7 ± 0.5 µM.
Sequence FERYPLKMPWSFLQSRQGSC [D4Y+M7K] returned a Kd on TNF-α [1] (setting [4]) of 17 ± 1.9 µM.
The same measure, in the same setting: the same measure for FERYPLMMPWKFLQSRQGSC [D4Y+S11K]: 9.3 ± 0.7 µM; for FERYPLMMPWSFLQSRQGSC [Peptide D4Y]: 44 ± 4.8 µM.
WGPSDAFKITRFHQQSSGSC [Peptide Y1W] gave a Kd at TNF-α [1] (setting [5]) of 0.38 ± 0.08 µM.
As for WGPSYAFKITRFHQQSSGSC [Y1W+D5Y], the Kd on TNF-α [1] (setting [5]) is 0.2 ± 0.03 µM.
As for WGPSYAFKIYRFHQQSSGSC [TNF4-opt], binding on TNF-α [1] (setting [5]) was characterised by a dissociation constant (Kd) of 0.09 ± 0.02 µM. For the same sequence, at TNF-α [2] (read-out: Kd resulting from rate constants), the Kd was 0.13 ± 0.03 µM. Further, at TNF-α [2], the koff was 0.0075 ± 8e-07 s⁻¹ and the kon is 58000 ± 1.2e+08 M⁻¹ s⁻¹.
YGPSDAFKITRFHQQSSGSC [TNF4] returned a Kd on TNF-α [1] (setting [4]) of 23 ± 3.5 µM.
In the case of YGPSDAFKIYRFHQQSSGSC [Peptide T10Y], the Kd on TNF-α [1] (setting [5]) came out at 0.31 ± 0.01 µM.
In the case of YGPSYAFKITRFHQQSSGSC [Peptide D5Y], the Kd at TNF-α [1] (setting [5]) turned out to be 0.28 ± 0.04 µM.
